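Exposure lasted 48 hours, with cells grown in 96-well plates and compounds tested at five concentrations. GI50 = concentration required for 50% inhibition of growth. TGI: total growth inhibition.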
How the values were obtained:
Assay in all cases: growth of human tumour cells (NCI), 48 h
[1] = test system: OVCAR-5 ovarian
[2] = test system: NCI/ADR-RES ovarian
[3] = test system: UO-31 renal
[4] = test system: SR leukemia
[5] = test system: HCT-15 colon
[6] = test system: K-562 leukemia
[7] = test system: U251 CNS
[8] = test system: SF-268 CNS
[9] = test system: CCRF-CEM leukemia
[10] = test system: LOX IMVI melanoma
[11] = test system: A498 renal
[12] = test system: COLO 205 colon
[13] = test system: CAKI-1 renal
[14] = test system: TK-10 renal
[15] = test system: 786-0 renal
[16] = test system: HCT-116 colon
[17] = test system: RPMI-8226 leukemia
[18] = test system: SF-539 CNS
[19] = test system: HOP-92 NSCLC
[20] = test system: MOLT-4 leukemia
[21] = test system: MCF7 breast
[22] = test system: SK-MEL-2 melanoma
[23] = test system: SF-295 CNS
[24] = test system: SK-MEL-28 melanoma
[25] = test system: OVCAR-8 ovarian
[26] = test system: MALME-3M melanoma
[27] = test system: UACC-257 melanoma
[28] = test system: M14 melanoma
[29] = test system: NCI-H226 lung
[30] = test system: SN12C renal
[31] = test system: ACHN renal
[32] = test system: A549 NSCLC
[33] = test system: UACC-62 melanoma
[34] = test system: NCI-H460 lung
[35] = test system: SW-620 colon
[36] = test system: SK-OV-3 ovarian
[37] = test system: NCI-H23 lung
[38] = test system: IGROV1 ovarian
[39] = test system: OVCAR-3 ovarian
[40] = test system: EKVX NSCLC
[41] = test system: SNB-75 CNS
[42] = test system: SK-MEL-5 melanoma
[43] = test system: HCC-2998 colon
[44] = test system: BT-549 breast
[45] = test system: MDA-MB-231 breast
[46] = test system: PC-3 prostate
[47] = test system: DU-145 prostate
[48] = test system: HOP-62 NSCLC
[49] = test system: HT29 colon
[50] = test system: OVCAR-4 ovarian
[51] = test system: MDA-MB-435
[52] = test system: KM12 colon
[53] = test system: SNB-19 CNS
[54] = test system: HL-60(TB) leukemia

COc1cc([C@@H]2c3cc4c(cc3[C@@H](Nc3ccc(C(=O)N[C@H]5CCc6cc(OC)c(OC)c(OC)c6-c6ccc(SC)c(=O)cc65)cc3)[C@H]3COC(=O)[C@H]23)OCO4)cc(OC)c1O
TGI [1]: > 100 µM | TGI [2]: 17.3 µM | TGI [3]: 86.4 µM | TGI [4]: 149 nM | TGI [5]: > 100 µM | TGI [6]: > 100 µM | TGI [7]: 15.2 µM | TGI [8]: > 100 µM | TGI [9]: 16.1 µM | TGI [10]: > 100 µM | TGI [11]: 21.8 µM | TGI [12]: 12.7 µM | TGI [13]: 13.4 µM | TGI [14]: > 100 µM | TGI [15]: 19.7 µM | TGI [16]: > 100 µM | TGI [17]: 38.8 µM | TGI [18]: > 100 µM | TGI [19]: 19.3 µM | TGI [20]: 10.9 µM | TGI [21]: 83 µM | TGI [22]: 15.1 µM | TGI [23]: > 100 µM | TGI [24]: > 100 µM | TGI [25]: > 100 µM | TGI [26]: 15.1 µM | TGI [27]: > 100 µM | TGI [28]: 52.2 µM | TGI [29]: > 100 µM | TGI [30]: 16.4 µM | TGI [31]: 22.2 µM | TGI [32]: > 100 µM | TGI [33]: 17.2 µM | TGI [34]: 14.2 µM | TGI [35]: 49.1 µM

Clc1cc(Cl)cc(N2N=C(c3cccc(Nc4ccncc4)c3)CC2c2ccc3c(c2)OCO3)c1 (stereo unspecified)
GI50 [36]: 2540 nM | TGI [36]: 8.38 µM | GI50 [1]: 1830 nM | TGI [1]: 3.51 µM | GI50 [37]: 1790 nM | TGI [37]: 3.45 µM | GI50 [3]: 1360 nM | TGI [3]: 2.67 µM | GI50 [5]: 1760 nM | TGI [5]: 3.44 µM | GI50 [6]: 2060 nM | TGI [6]: 4.86 µM | GI50 [38]: 1620 nM | TGI [38]: 3.18 µM | GI50 [39]: 1730 nM | TGI [39]: 3.27 µM | GI50 [8]: 1700 nM | TGI [8]: 3.34 µM | GI50 [40]: 1610 nM | TGI [40]: 3.2 µM | GI50 [41]: 1380 nM | TGI [41]: 2990 nM | GI50 [9]: 2720 nM | TGI [9]: 18.4 µM | GI50 [42]: 1770 nM | TGI [42]: 3.21 µM | GI50 [11]: 1340 nM | TGI [11]: 4.54 µM | GI50 [12]: 1870 nM | TGI [12]: 3.88 µM | GI50 [13]: 1540 nM | TGI [13]: 2.9 µM | GI50 [15]: 1690 nM | TGI [15]: 3.14 µM | GI50 [16]: 1700 nM | TGI [16]: 3.42 µM | GI50 [18]: 1840 nM | TGI [18]: 3.31 µM | GI50 [19]: 1390 nM | TGI [19]: 2.82 µM | GI50 [43]: 1840 nM | TGI [43]: 3.37 µM | GI50 [20]: 1880 nM | TGI [20]: 4.49 µM | GI50 [21]: 1890 nM | TGI [21]: 4.17 µM | GI50 [44]: 1700 nM | TGI [44]: 3.3 µM | GI50 [45]: 1370 nM | TGI [45]: 2720 nM | GI50 [46]: 1590 nM | TGI [46]: 3.18 µM | GI50 [23]: 1770 nM | TGI [23]: 3.2 µM | GI50 [47]: 1710 nM | TGI [47]: 3.13 µM | GI50 [24]: 1840 nM | TGI [24]: 3.36 µM | GI50 [48]: 1790 nM | TGI [48]: 3.64 µM | GI50 [49]: 2140 nM | TGI [49]: 4.72 µM | GI50 [50]: 1650 nM | TGI [50]: 3.18 µM | GI50 [28]: 1750 nM | TGI [28]: 3.37 µM | GI50 [29]: 1910 nM | TGI [29]: 4.3 µM | GI50 [30]: 1660 nM | TGI [30]: 3.13 µM | GI50 [51]: 1620 nM | TGI [51]: 3.09 µM | GI50 [31]: 1690 nM | TGI [31]: 3.06 µM | GI50 [33]: 1710 nM | TGI [33]: 3.17 µM | GI50 [34]: 1760 nM | TGI [34]: 3.34 µM | GI50 [35]: 1670 nM | TGI [35]: 3.29 µM | GI50 [52]: 1780 nM | TGI [52]: 3.35 µM

Cc1ccc(C)c(/C=C2\CN(C(=O)OC(C)(C)C)C/C(=C\c3cc(C)ccc3C)C2=O)c1
GI50 [36]: > 100000 nM | TGI [36]: > 100 µM | GI50 [2]: 3.48 µM | TGI [2]: > 100 µM | GI50 [4]: 2530 nM | TGI [4]: > 100000 nM | GI50 [6]: 2940 nM | TGI [6]: > 100 µM | GI50 [8]: 2760 nM | TGI [8]: > 100 µM | GI50 [53]: 2680 nM | TGI [53]: > 100 µM | GI50 [9]: 2490 nM | TGI [9]: > 100 µM | GI50 [13]: 2890 nM | TGI [13]: > 100 µM | GI50 [16]: 1430 nM | TGI [16]: 5.34 µM | GI50 [54]: 2520 nM | TGI [54]: > 100 µM | GI50 [20]: 2780 nM | TGI [20]: > 100 µM | GI50 [21]: 1940 nM | TGI [21]: > 100 µM | GI50 [46]: 2710 nM | TGI [46]: > 100 µM | GI50 [25]: 3.56 µM | TGI [25]: > 100 µM | GI50 [49]: 3260 nM | TGI [49]: > 100 µM | GI50 [28]: 2990 nM | TGI [28]: > 100 µM | GI50 [31]: 3070 nM | TGI [31]: > 100 µM
